Format in all cases: functional, cell-based
Experiment [1] has as its target T1, ATP-dependent translocase ABCB1 (Homo sapiens, UniProt P08183). Put plainly: TP_TRANSPORTER: inhibition of Daunorubicin transepithelial transport (basal to apical) (Daunorubicin: 0.035 uM) in MDR1-expressing LLC-PK1 cells.
For experiment [2], the target named is T1, ATP-dependent translocase ABCB1. Kind of experiment: TP_TRANSPORTER: inhibition of Daunorubicin transepithelial transport (basal to apical), (+)-efonidipine (Daunorubicin: 0.035 uM) in MDR1-expressing LLC-PK1 cells.
The target is the same in experiment [3]. Kind of experiment: TP_TRANSPORTER: inhibition of Daunorubicin transepithelial transport (basal to apical), (-)-efonidipine (Daunorubicin: 0.035 uM) in MDR1-expressing LLC-PK1 cells.

T1 sequence (P08183 whole entry): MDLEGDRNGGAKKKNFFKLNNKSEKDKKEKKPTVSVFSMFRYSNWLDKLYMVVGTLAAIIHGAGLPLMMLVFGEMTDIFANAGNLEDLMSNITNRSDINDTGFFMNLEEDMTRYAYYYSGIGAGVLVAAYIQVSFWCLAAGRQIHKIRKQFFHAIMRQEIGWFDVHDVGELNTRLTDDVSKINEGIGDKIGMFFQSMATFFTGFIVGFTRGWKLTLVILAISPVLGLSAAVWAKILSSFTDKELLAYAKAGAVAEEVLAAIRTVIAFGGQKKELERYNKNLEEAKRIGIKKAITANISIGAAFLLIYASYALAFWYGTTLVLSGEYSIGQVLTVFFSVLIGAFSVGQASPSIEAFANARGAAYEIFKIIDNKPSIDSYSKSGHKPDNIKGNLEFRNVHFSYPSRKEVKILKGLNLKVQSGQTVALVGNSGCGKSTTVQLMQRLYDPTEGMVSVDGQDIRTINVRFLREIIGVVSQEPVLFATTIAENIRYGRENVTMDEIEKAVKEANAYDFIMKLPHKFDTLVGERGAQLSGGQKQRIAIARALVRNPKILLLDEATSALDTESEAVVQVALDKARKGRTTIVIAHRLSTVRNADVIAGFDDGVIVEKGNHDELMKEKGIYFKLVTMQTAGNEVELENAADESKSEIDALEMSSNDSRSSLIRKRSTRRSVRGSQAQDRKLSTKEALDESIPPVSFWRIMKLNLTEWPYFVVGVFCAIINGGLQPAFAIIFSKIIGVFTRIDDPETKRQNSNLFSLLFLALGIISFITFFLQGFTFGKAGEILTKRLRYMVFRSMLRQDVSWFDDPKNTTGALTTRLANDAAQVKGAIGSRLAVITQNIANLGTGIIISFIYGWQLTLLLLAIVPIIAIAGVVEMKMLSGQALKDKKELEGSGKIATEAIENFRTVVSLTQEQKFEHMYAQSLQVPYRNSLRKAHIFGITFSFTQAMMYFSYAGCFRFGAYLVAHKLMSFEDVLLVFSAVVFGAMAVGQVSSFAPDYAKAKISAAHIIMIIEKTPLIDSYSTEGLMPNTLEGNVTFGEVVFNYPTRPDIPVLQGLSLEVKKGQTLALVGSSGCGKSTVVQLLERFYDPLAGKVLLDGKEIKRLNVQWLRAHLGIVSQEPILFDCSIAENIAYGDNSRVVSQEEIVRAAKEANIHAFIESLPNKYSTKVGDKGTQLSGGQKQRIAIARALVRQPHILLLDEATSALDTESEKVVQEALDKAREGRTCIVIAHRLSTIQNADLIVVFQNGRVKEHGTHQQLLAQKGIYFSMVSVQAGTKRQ

Usually IC50 stands for the concentration that inhibits the measured activity by half. Low values mean greater potency in that assay, high ones weaker potency in that assay. Turning to `COC(=O)C1=C(C)NC(C)=C(C(=O)O[C@@H]2CCCN(Cc3ccccc3)C2)C1c1cccc([N+](=O)[O-])c1` (stereo partly specified), the IC50 in experiment [1] turned out to be 9.5 µM.

The molecule `CCOC(=O)C1=C(COCCN)NC(C)=C(C(=O)OC)C1c1ccccc1Cl` (stereo unspecified) [AMLODIPINE] yielded an IC50 in experiment [1] of 22 µM. In the case of `COC(=O)C1=C(C)NC(C)=C(C(=O)O[C@H]2CCN(Cc3ccccc3)C2)[C@H]1c1cccc([N+](=O)[O-])c1` [BARNIDIPINE], the 50% inhibitory concentration (IC50) in experiment [1] amounted to 8.6 µM. This IC50 lies about 2.6-fold lower than the previous one. In the case of `CC1=C(C(=O)OCCN(Cc2ccccc2)c2ccccc2)C(c2cccc([N+](=O)[O-])c2)C(P2(=O)OCC(C)(C)CO2)=C(C)N1` (stereo unspecified) [EFONIDIPINE], the half-maximal inhibitory concentration (IC50) is 20.6 µM in experiment [2] and 17.3 µM in experiment [3]. For the molecule `COC(=O)C1=C(C)NC(C)=C(C(=O)OCCN2CCN(C(c3ccccc3)c3ccccc3)CC2)C1c1cccc([N+](=O)[O-])c1` (stereo unspecified) [MANIDIPINE 6300], half-maximal inhibition in experiment [1] (IC50) required 4.6 µM.
